{
  "source": "ChEMBL document CHEMBL1144115",
  "about": "“Antibacterial diterpenoid acids from Azorella compacta” (1999)",
  "key": {"Staphylococcus aureus [1]": {"system": "Staphylococcus aureus", "experiment": "Antibacterial activity against methicillin-susceptible Staphylococcus aureus at 200 ug after 18 hrs by agar diffusion test", "assay_type": "functional", "conditions": "for zone of inhibition at 200 µg/disc: read-out: IZ"}, "Staphylococcus aureus [2]": {"system": "Staphylococcus aureus", "experiment": "Antibacterial activity against methicillin-resistant Staphylococcus aureus at 200 ug after 18 hrs by agar diffusion test", "assay_type": "functional", "conditions": "for zone of inhibition at 200 µg/disc: read-out: IZ"}, "Enterococcus faecium [3]": {"system": "Enterococcus faecium", "experiment": "Antibacterial activity against vancomycin-resistant Enterococcus faecium at 200 ug after 18 hrs by agar diffusion test", "assay_type": "functional", "conditions": "for zone of inhibition at 200 µg/disc: read-out: IZ"}, "Escherichia coli [4]": {"system": "Escherichia coli", "experiment": "Antibacterial activity against Escherichia coli BAS849 mutant at 200 ug after 18 hrs by agar diffusion test", "assay_type": "functional", "conditions": "for zone of inhibition at 200 µg/disc: read-out: IZ"}, "Candida albicans": {"system": "Candida albicans", "experiment": "Antimicrobial activity against Candida albicans at 200 ug after 18 hrs by agar diffusion test", "assay_type": "functional, organism-based"}, "Enterococcus faecium [5]": {"system": "Enterococcus faecium", "experiment": "Antibacterial activity against vancomycin-resistant Enterococcus faecium at 10 ug after 18 hrs by agar diffusion test", "assay_type": "functional", "conditions": "read-out: IZ"}, "Staphylococcus aureus [6]": {"system": "Staphylococcus aureus", "experiment": "Antibacterial activity against methicillin-susceptible Staphylococcus aureus at 30 ug after 18 hrs by agar diffusion test", "assay_type": "functional", "conditions": "read-out: IZ"}, "Staphylococcus aureus [7]": {"system": "Staphylococcus aureus", "experiment": "Antibacterial activity against methicillin-resistant Staphylococcus aureus at 30 ug after 18 hrs by agar diffusion test", "assay_type": "functional", "conditions": "read-out: IZ"}, "Escherichia coli [8]": {"system": "Escherichia coli", "experiment": "Antibacterial activity against Escherichia coli BAS849 mutant at 30 ug after 18 hrs by agar diffusion test", "assay_type": "functional", "conditions": "read-out: IZ"}},
  "note": "Calls of active or inactive are those of the source. No cut-off for these calls is given here. Where a SMILES comes first, the peptide text is derived from it. Bridges are numbered along the chain shown (N, C = ends). [ ]: non-standard residue; d: D form. The star is where a group is joined. Ileψ(thiazoline)Cys = CC[C@H](C)[C@H](N)C1=N[C@H](C(=O)*)CS1; dOrn = NCCC[C@@H](N)C(=O)O",
  "data": [
    {"smiles": "CC(C)[C@H]1CC[C@H]2[C@@H]3C=C[C@](C)(O)CC[C@]3(C)CC[C@]12C(=O)O", "values": [
      {"measurement": "Activity", "setting": "Staphylococcus aureus [1]", "value": "inactive"},
      {"measurement": "Activity", "setting": "Staphylococcus aureus [2]", "value": "inactive"},
      {"measurement": "Activity", "setting": "Enterococcus faecium [3]", "value": "inactive"},
      {"measurement": "Activity", "setting": "Escherichia coli [4]", "value": "inactive"},
      {"measurement": "Activity", "setting": "Candida albicans", "value": "inactive"}
    ]},
    {"smiles": "CC1=CC[C@]2(C)CC[C@]3(C(=O)O)[C@@H](C(C)C)CC[C@H]3[C@@H]2C=C1", "values": [
      {"measurement": "Activity", "setting": "Staphylococcus aureus [1]", "value": "inactive"},
      {"measurement": "Activity", "setting": "Staphylococcus aureus [2]", "value": "inactive"},
      {"measurement": "Activity", "setting": "Enterococcus faecium [3]", "value": "inactive"},
      {"measurement": "Activity", "setting": "Escherichia coli [4]", "value": "inactive"},
      {"measurement": "Activity", "setting": "Candida albicans", "value": "inactive"}
    ]},
    {"smiles": "CC[C@H](C)[C@H](N)C1=N[C@H](C(=O)N[C@@H](CC(C)C)C(=O)N[C@H](CCC(=O)O)C(=O)N[C@H](C(=O)N[C@H]2CCCCNC(=O)[C@H](CC(N)=O)NC(=O)[C@@H](CC(=O)O)NC(=O)[C@H](Cc3cnc[nH]3)NC(=O)[C@@H](Cc3ccccc3)NC(=O)[C@H]([C@@H](C)CC)NC(=O)[C@@H](CCCN)NC2=O)[C@@H](C)CC)CS1", "note": "[BACITRACIN] ({Ileψ(thiazoline)Cys}-L[dE]IK[dOrn]I[dF]H[dD]N; lactam 4-C)", "values": [
      {"measurement": "zone of inhibition at 10 µg/disc", "setting": "Enterococcus faecium [5]", "value": 16, "unit": "mm"}
    ]},
    {"smiles": "CN[C@H](CC(C)C)C(=O)N[C@H]1C(=O)N[C@@H](CC(N)=O)C(=O)N[C@H]2C(=O)N[C@H]3C(=O)N[C@H](C(=O)N[C@H](C(=O)O)c4cc(O)cc(O)c4-c4cc3ccc4O)[C@H](O)c3ccc(c(Cl)c3)Oc3cc2cc(c3O[C@@H]2O[C@H](CO)[C@@H](O)[C@H](O)[C@H]2O[C@H]2C[C@](C)(N)[C@H](O)[C@H](C)O2)Oc2ccc(cc2Cl)[C@H]1O", "note": "[VANCOMYCIN]", "values": [
      {"measurement": "zone of inhibition at 30 µg/disc", "setting": "Staphylococcus aureus [6]", "value": 16, "unit": "mm"},
      {"measurement": "zone of inhibition at 30 µg/disc", "setting": "Staphylococcus aureus [7]", "value": 16, "unit": "mm"}
    ]},
    {"smiles": "CC1=CC(=O)[C@H]2[C@@H]3CC[C@H](C(C)C)[C@@]3(C(=O)O)CC[C@@]2(C)C=C1", "values": [
      {"measurement": "zone of inhibition at 200 µg/disc", "setting": "Staphylococcus aureus [1]", "value": 8, "unit": "mm"},
      {"measurement": "zone of inhibition at 200 µg/disc", "setting": "Staphylococcus aureus [2]", "value": 8, "unit": "mm"},
      {"measurement": "zone of inhibition at 200 µg/disc", "setting": "Enterococcus faecium [3]", "value": 8, "unit": "mm"},
      {"measurement": "zone of inhibition at 200 µg/disc", "setting": "Escherichia coli [4]", "value": 8, "unit": "mm"},
      {"measurement": "Activity", "setting": "Candida albicans", "value": "inactive"}
    ]},
    {"smiles": "CC1=CC(=O)[C@H]2[C@@H]3CC[C@H](C(C)C)[C@@]3(C(=O)O)CC[C@@]2(C)CC1=O", "values": [
      {"measurement": "zone of inhibition at 200 µg/disc", "setting": "Staphylococcus aureus [1]", "value": 8, "unit": "mm"},
      {"measurement": "zone of inhibition at 200 µg/disc", "setting": "Staphylococcus aureus [2]", "value": 8, "unit": "mm"},
      {"measurement": "zone of inhibition at 200 µg/disc", "setting": "Enterococcus faecium [3]", "value": 8, "unit": "mm"},
      {"measurement": "zone of inhibition at 200 µg/disc", "setting": "Escherichia coli [4]", "value": 8, "unit": "mm"},
      {"measurement": "Activity", "setting": "Candida albicans", "value": "inactive"}
    ]},
    {"smiles": "CO[C@@]1(NC(=O)Cc2cccs2)C(=O)N2C(C(=O)O)=C(COC(N)=O)CS[C@@H]21", "note": "[CEFOXITIN]", "values": [
      {"measurement": "zone of inhibition at 30 µg/disc", "setting": "Escherichia coli [8]", "value": 16, "unit": "mm"}
    ]}
  ]
}
